The text below walks through data of patent publication US3937612A, “Dialkylphosphonoacetylurea compounds and processes for preparation and use for flameproofing” (priority 1974, dated 1976).

The data set can be described thus: Water solubility (stated in words). In kind it is physicochemical. The protocol:
While stirring, 682 gm (5 mol) of chloroacetylurea were added portionwise to 831 gm (5 mol) of triethyl phosphite at a temperature of 135°C to 150°C. Each time, the addition of the next portion was delayed until the violent gas evolution had abated. After the last portion of chloracetylurea had been added, the stirring was continued at 150°Cuntil the evolution of gas was terminated. Small quantities of a volatile substance distilled off when the reaction mixture was heated on the water bath under the vacuum generated by an oil pump. The reaction mixture solidified upon cooling. […] The yield of crude product was 1120 gm (94% of the theory).

As to `CCOP(=O)(CC(=O)NC(N)=O)OCC` [diethylphosphonoacetylurea, Diethylphosphonoacetylurea], the water solubility entry is on record as “water-soluble”.
